We go through 11 compounds from US6583171B1, “Antineoplastic agents” (Welichem Biotech Inc., priority 1996, dated 2003).

pIC50: −log10 of the molar value. Where two headings read alike, the source gives them in different places.

Data set [1] deals with Human Lung Cancer (H460). As to the kind of experiment: Anticancer activity of xenorxide derivatives (Example 8), H460. In kind it is cell-based. The note with it: NCI-H460; H460 human lung cancer cells. The source says:
(§1) Anticancer Activity of Xenorxide Derivatives Against Human Lung Cancer (H460) and Breast Cancer (LCC6)

The subject of data set [2] is Breast Cancer (LCC6). As to the kind of experiment: Anticancer activity of xenorxide derivatives (Example 8), LCC6. In kind it is cell-based. The settings on record: Homo sapiens, LCC-6; LCC6 breast cancer cells.
Excerpt: as §1

Data set [3] concerns Hela. As to the kind of experiment: NCI sulforhodamine B (SRB) anticancer assay, Hela. In kind it is cell-based. The source says:
(§2) The method normally used by the American National Cancer Institute (NCI) for the effectiveness of a compound is based on the LC50. The LC50 is the compound concentration at which half of the cancer cell population is killed. The assay is commonly used by those skilled in the art and are accepted as indicative of anticancer activity in mammals. The test animal cancer cells are available from ATCC, NCI and other organizations. The anticancer activities of compounds of the present invention have been determined in cell cultures of various human cancer cells (see table below) using the standard NCI method with slight modifications. The specifications of the procedure was described by Skehan et al. (1990). Briefly, cancer cells were grown in RPMI-1640 medium with glutamine and 10% fetal calf serum, and were harvested from exponential-phase maintenance cultures. The harvested cells were counted and dispensed into replicate 96-well culture plates in 180 μl volumes for each well with a cell density of up to 2,500 cells/well. The cells were allowed to settle for about 4 hours at 37° C. Then 20 μl of medium containing the test compound was added into each well, resulting in a suitable final test compound concentration. The test plates were then incubated at 37° C. The test was terminated after incubation by adding to each well 50 1 of cold 50% trichloroacetic acid. The cells were fixed for an hour at 4° C. and then washed five times with tap water. The washed plates were air-dried and stained for 30 minutes with 0.4% (wt/vol) sulforhodamine B (SRB) which was dissolved in 1% acetic acid. At the end of the staining period, the SRB was removed and plates were quickly rinsed five times with 1% acetic acid. After being rinsed, the plates were air-dried and 100 μl of 10 mM tris base (pH 10.5) were added to each well to dissolve the dye bound to the cells. The plates were placed on a gyratory shaker and shaken (100 rpm) for 10 minutes. Finally, the plates were read in a microtiter plate reader at 570 nm.

The test system of data set [4] is HT29. As to the kind of experiment: NCI sulforhodamine B (SRB) anticancer assay, HT29. Format: cell-based.
Excerpt: as §2
A general note: In SRB staining, fixed cells bind dye roughly in proportion to their protein.

In data set [5] the test system is MCF-7. As to the kind of experiment: NCI sulforhodamine B (SRB) anticancer assay, MCF-7. Format: cell-based.
Excerpt: as §2

Data set [6] concerns NCI-H460. As to the kind of experiment: NCI sulforhodamine B (SRB) anticancer assay, NCI-H460. In kind it is cell-based. The settings on record: NCI-H460 cells, read-out: LC50 (the source's name).
Excerpt: as §2

The test system of data set [7] is Sk-Mel-28. As to the kind of experiment: NCI sulforhodamine B (SRB) anticancer assay, Sk-Mel-28. In kind it is cell-based. The settings on record: Sk-Mel-28 cells, read-out: LC50 (the source's name).
Excerpt: as §2

Data set [8] has as its system UO-31 (Renal cancer). As to the kind of experiment: NCI sulforhodamine B (SRB) anticancer assay, UO-31. Format: cell-based. The note with it: UO-31 (Renal cancer) cells, read-out: LC50 (the source's name).
Excerpt: as §2

For data set [9], the system named is SF-295 (CNS cancer). As to the kind of experiment: NCI sulforhodamine B (SRB) anticancer assay, SF-295. Format: cell-based. The settings on record: SF-295 (CNS cancer) cells, read-out: LC50 (the source's name).
Excerpt: as §2

In data set [10] the test system is DU-145 (Prostate cancer). As to the kind of experiment: NCI sulforhodamine B (SRB) anticancer assay, DU-145. Format: cell-based. The settings on record: DU-145 (Prostate cancer) cells, read-out: LC50 (the source's name).
Excerpt: as §2

The test system of data set [11] is P388. As to the kind of experiment: NCI sulforhodamine B (SRB) anticancer assay, P388. Format: cell-based. The settings on record: P388 cells; read-out: LC50 (the source's name).
Excerpt: as §2, with “The test was terminated after incubation by adding to each well 50 1 of cold 50% trichloroacetic acid. The cells were fixed for an hour at 4° C. and then washed five times with tap water. The washed plates were air-dried and stained for 30 minutes with 0.4% (wt/vol) sulforhodamine B (SRB) which was dissolved in 1% acetic acid. At the end of the staining period, the SRB was removed and plates were quickly rinsed five times with 1% acetic acid. After being rinsed, the plates were air-dried and 100 μl of 10 mM tris base (pH 10.5) were added to each well to dissolve the dye bound to the cells. The plates were placed on a gyratory shaker and shaken (100 rpm) for 10 minutes.” left out

Data set [12] has as its system LNCap. As to the kind of experiment: NCI sulforhodamine B (SRB) anticancer assay, LNCap. In kind it is cell-based, human. The settings on record: LNCap cells; read-out: LC50 (the source's name).
Excerpt: as §2, with “The test was terminated after incubation by adding to each well 50 1 of cold 50% trichloroacetic acid. The cells were fixed for an hour at 4° C. and then washed five times with tap water. The washed plates were air-dried and stained for 30 minutes with 0.4% (wt/vol) sulforhodamine B (SRB) which was dissolved in 1% acetic acid. At the end of the staining period, the SRB was removed and plates were quickly rinsed five times with 1% acetic acid. After being rinsed, the plates were air-dried and 100 μl of 10 mM tris base (pH 10.5) were added to each well to dissolve the dye bound to the cells. The plates were placed on a gyratory shaker and shaken (100 rpm) for 10 minutes.” left out

Setting [13] is: Hela cells, read-out: LC50 (the source's name).
[14] abbreviates: HT29 cells, concentration at which half of the cancer cell population is killed, read-out: LC50 (the source's name).
Setting [15] is: MCF-7 cells, read-out: LC50 (the source's name).

In the case of `COc1ccc(N2C(=O)C(NC(=O)C(F)(F)F)=C3C2=CSS3(=O)=O)cc1` [BLI-041-1], the figures for the pIC50 in [1] and in data set [2] were 5.67 and 5.20, respectively.

As to `COc1ccc(N2C(=O)C(NC(C)=O)=C3C2=CSS3(=O)=O)cc1` [BLI-042-1], the values for the pIC50 in data set [1] and in data set [2] were 6.64 and 5.79, respectively.

For `O=C(NC1=C2C(=CSS2(=O)=O)N(Cc2ccccc2)C1=O)c1ccccc1` [CSL-29], the pIC50 (usually the IC50 on a negative log10 scale, so that one unit is a factor of ten) in data set [1] was 5.70; in data set [2] it was 5.71.

As to `CC(=O)NC1=C2C(=CSS2(=O)=O)N(c2ccccc2)C1=O` [CSL-30], the values for the pIC50 in [1] and in data set [2] were 6.25 and 6.17, respectively.

For `CCCCCC(=O)Nc1c2[s+]([O-])scc-2n(C)c1=O` (stereo not drawn) [XM1], the figures for the CC50 in [3] (setting [13]), in data set [4] (setting [14]) and in [5] (setting [15]) were 800 nM, 470 nM and 470 nM, respectively.

Take `CC(C)CCCC(=O)Nc1c2[s+]([O-])scc-2n(C)c1=O` (stereo not drawn) [XM2]: the results for the CC50 in [3] (setting [13]), in [4] (setting [14]) and in [5] (setting [15]) were 210 nM, 110 nM and 550 nM, respectively.

On to `CC(=O)Nc1c2sscc-2n(C)c1=O` [XN0, 6-(Acetamido)-4-methyl-4,5dihydro-1.2-dithiolo[4,3-b]pyrrol-5-one], for which the CC50 in data set [3] (Homo sapiens, HeLa, read-out: LC50) is 310 nM; in [4] (Homo sapiens, HT-29, read-out: LC50), 130 nM; in data set [5] (Homo sapiens, MCF7, read-out: LC50) it was 350 nM.

Turning to `CCCCCC(=O)Nc1c2sscc-2n(C)c1=O` [XN1, 6-(Hexanamido)-4-methyl-4,5-dihydro-1.2-dithiolo[4,3-b]pyrrol-5-one], the figures for the CC50 in data set [3] (setting [13]), in [4] (setting [14]) and in [5] (setting [15]) were 460 nM, 110 nM and 560 nM, respectively.

As to `CC(C)CCCC(=O)Nc1c2sscc-2[nH]c1=O` [XN3, 6(5′-Methylhexanamido)-4,5-dihydro1,2-dithiolo[4,3-b]pyrrol-5one], the CC50 in [3] (Homo sapiens, Hela cells, read-out: LC50 (the source's name)) was found to be 320 nM; in data set [6] (Homo sapiens) it was 30 nM; in data set [4] (Homo sapiens, HT-29, HT29 cells, concentration at which half of the cancer cell population is killed, read-out: LC50 (the source's name)), 110 nM; in data set [7] (Homo sapiens), 240 nM; in data set [8] (Homo sapiens), 180 nM; in data set [9] (Homo sapiens), 40 nM. In addition, the CC50 in data set [10] (Homo sapiens) is 140 nM; in data set [5] (Homo sapiens, MCF7, MCF-7 cells, read-out: LC50 (the source's name)), 390 nM.

As for `CCCCCC(=O)NC1=C2C(=CSS2(=O)=O)N(C)C1=O` [XO1], the CC50 in data set [11] was 660 nM; in [3] (setting [13]) it was 160 nM; in data set [12], 540 nM; in data set [6] it was 280 nM; in data set [4] (setting [14]) it was 220 nM; in data set [7], 190 nM. Also, the CC50 in data set [8] was 1850 nM; in data set [9], 1580 nM; in data set [10] it was 1800 nM; in data set [5] (setting [15]), 890 nM.

As to `CC(C)CCCC(=O)NC1=C2C(=CSS2(=O)=O)N(C)C1=O` [XO2], the CC50 came out at 280 nM in [11]; 130 nM in [3] (setting [13]); 190 nM in [12]; 220 nM in [6]; 850 nM in data set [4] (setting [14]); 730 nM in [7]. Moreover, the CC50 was found to be 6000 nM in data set [8], 2120 nM in data set [9], 1600 nM in data set [10] and 950 nM in data set [5] (setting [15]).
